According to patent US7786116B2, “2-amino-quinoline derivatives useful as inhibitors of β-secretase (BACE)” (Janssen Pharmaceutica N.V., priority 2008, dated 2010):

Biological target: human BACE-1 (Homo sapiens, UniProt P56817)
Test: in vitro BACE Assay-1 (CEREP, fluorogenic substrate)
Type: biochemical
Conditions: test compound at 10 μM
Method: This assay was run by CEREP (Catalog Ref. 761-B, Referred to SOP No. 1C131; ERMOLIEFF, J., LOY, J. A., KOELSCH, G. and TANG, J., Proteolytic activation of recombinant pro-memapsin 2 (pro-BACE) studied with new fluorogenic substrates, Biochemistry, (2000) Vol. 39, p. 12450).
More specifically the assay, run at 50 μL in a 96 well plate, evaluated the effect of test compound on the activity of the human BACE-1 quantified by measuring the formation of Mca-S-E-V-N-L-NH2 from Mca-S-E-V-N-L-D-A-E-F-R-K(Dnp)-R—R—NH2, using a recombinant enzyme.
The test compound, reference compound or water (control) was added to a buffer containing 0.09 M sodium acetate (pH 4.5) and 0.25 μg BACE-1. Compound interference with the fluorimetric detection method due to autofluorescence was then checked by measurements at the wavelengths defined to evaluate the enzyme activity. Thereafter, the reaction was initiated by adding 7.5 μM of the substrate Mca-S-E-V-N-L-D-A-E-F-R-K(Dnp)-R—R—NH2 and the mixture was incubated for 60 min at 37° C. For control basal measurement, the substrate was omitted from the reaction mixture. Immediately after the incubation, the fluorescence intensity emitted by the reaction product Mca-S-E-V-N-L-NH2 was measured at λex=320 nm and λem=405 nm using a microplate reader (Ultra, Tecan). The standard inhibitory reference compound was OM99-2, which was tested in each experiment at several concentrations to obtain an inhibition curve from which its IC50 value was calculated.
Representative compounds of the present invention were tested in the assay as described above, with results as listed in Table 3, below.

Chain of human BACE-1 (P56817 46-501): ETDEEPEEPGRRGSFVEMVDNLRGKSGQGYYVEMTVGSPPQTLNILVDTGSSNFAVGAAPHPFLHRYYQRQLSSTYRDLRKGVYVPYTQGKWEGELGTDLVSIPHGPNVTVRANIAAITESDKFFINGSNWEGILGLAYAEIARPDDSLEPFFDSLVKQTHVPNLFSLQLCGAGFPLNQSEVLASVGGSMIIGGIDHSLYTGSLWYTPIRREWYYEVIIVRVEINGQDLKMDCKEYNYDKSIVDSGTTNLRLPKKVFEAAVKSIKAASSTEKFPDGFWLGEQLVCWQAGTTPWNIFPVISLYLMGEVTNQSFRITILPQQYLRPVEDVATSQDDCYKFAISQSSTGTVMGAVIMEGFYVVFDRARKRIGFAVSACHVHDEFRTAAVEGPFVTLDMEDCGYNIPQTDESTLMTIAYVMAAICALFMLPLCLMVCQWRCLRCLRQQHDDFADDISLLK

With `Cn1ccnc1CN(CCC(C)(C)C)C(=O)CCC(c1cc2cc(-c3ccccc3OC(F)(F)F)ccc2nc1N)C1CCOCC1` (stereo not shown) [Compound 56] the “% Inh @ 10 μM” value was 73%.
